Measured values published in US4103008A, “7[2(2,3 Dioxopiperazin-1-yl-carbonylamino)substituted 2 phenylacetamido]-3-2'-thiadiazolyl cephalosporanic acid derivatives” (priority 1976, dated 1978).
In brackets after ≈: the same amount, converted by molar mass. Like-named read-outs stand apart in the source and are kept apart here.

What was measured:
[1] = test system: Staphylococcus aureus FDA 209NIH, P-J C-1; assay: In vitro antibacterial activity (MIC); type: cell-based
[2] = test system: Streptococcus faecalis ATCC 8043; assay: In vitro antibacterial activity (MIC); type: cell-based; conditions: Enterococcus faecalis, ATCC8043
[3] = test system: Bacillus substilis ATCC 6633; assay: In vitro antibacterial activity (MIC); type: cell-based; conditions: ATCC6633
Escherichia coli C 73-1 = assay: In vitro antibacterial activity (MIC); type: cell-based; conditions: C731
Escherichia coli C 73-4 = assay: In vitro antibacterial activity (MIC); type: cell-based; conditions: C734
[4] = test system: Salmonella enteritidis No. 11; assay: In vitro antibacterial activity (MIC); type: cell-based; conditions: Salmonella enterica
[5] = test system: Pseudomonas strain C73-83; assay: In vitro antibacterial activity (MIC); type: cell-based; conditions: C7383
Text: (§1) Given below are the test results of in vitro antibacterial activity studies, serum concentrations and accumulative urinary excretions in rabbits and the protecting effects in mice, of some representative compounds of the invention.
(§2) The compounds used in the tests are shown in the following Table 1, but all of these compounds are in the form of the sodium salt.

[6] = test system: Salmonella strain C 73-30; assay: In vitro antibacterial activity (MIC); type: cell-based; conditions: C7330
Text: as §1, §2

Salmonella strain C73-1 = assay: In vitro antibacterial activity (MIC); type: cell-based; conditions: C731
Text: as §1, §2

[7] = test system: Shigella dysenteriae shigae; assay: microbe, parasite or virus in culture; type: cell-based
Klebsilla pneumoniae = assay: In vitro antibacterial activity (MIC); type: cell-based
Proteus morganii kono = assay: In vitro antibacterial activity (MIC); type: cell-based; conditions: Morganella morganii
Proteus morganii C73-23 = assay: In vitro antibacterial activity (MIC); type: cell-based; conditions: Morganella morganii, C7323
[8] = test system: Enterobacter strain C73-17; assay: In vitro antibacterial activity (MIC); type: cell-based; conditions: C7317
Serratia strain No. 1 = assay: In vitro antibacterial activity (MIC); type: cell-based
Serratia strain No. 2 = assay: In vitro antibacterial activity (MIC); type: cell-based
[9] = test system: Pseudomonas aeruginosa C73-2; assay: In vitro antibacterial activity (MIC); type: cell-based; conditions: C732
[10] = test system: Pseudomonas strain C73-63; assay: In vitro antibacterial activity (MIC); type: cell-based; conditions: C7363
[11] = test system: Vibrio parahaemolyticus K - 3; assay: In vitro antibacterial activity (MIC); type: cell-based; conditions: K3
[12] = test system: Vibrio parahaemolyticus K - 5; assay: In vitro antibacterial activity (MIC); type: cell-based; conditions: K5
[13] = Serum concentration and accumulative urinary excretion in rabbit; conditions: in vivo, im, 20 mg/kg intramuscular, sodium salts, Sarcina lutea assay
Protocol: as §1, §2
Each of the test compounds (20 mg/kg) was intramuscularly administered to one group of 3 rabbits, and the amounts of antibiotics were measured by a conventional method, using Sarcina lutea.

[14] = test system: Pseudomonas aerugenosa E 2 strain; assay: ED50 in Pseudomonas infection in mice; type: in vivo; conditions: ICR-JCL mouse, male, 20g; P. aerugenosa E 2 3.6 × 10^4 intraperitoneal; compound intramuscular after 2 hrs.; ED50 after 7 days; sodium salts
Text: as §1, §2
Pseudomonas aerugenosa E 2 strain (3.6 × 10^4) was intraperitonealy injected to each group of 10 of ICR-JCL mouse (male, 20g). After 2 hrs., each of the test compounds was intramuscularly administered to the infected mice and the ED50 values were measured after 7 days.

[15] = Staphylococcus aureus FDA 209NIH, P-J C-1, in vitro, sodium salts, read-out: MIC
[16] = Streptococcus faecalis ATCC 8043, in vitro, sodium salts, read-out: MIC
[17] = Bacillus substilis ATCC 6633, in vitro, sodium salts, read-out: MIC
[18] = Salmonella enteritidis No. 11, in vitro, sodium salts, read-out: MIC
[19] = Pseudomonas strain C73-83, in vitro, sodium salts, read-out: MIC
[20] = Salmonella strain C 73-30, in vitro, sodium salts, read-out: MIC
[21] = Salmonella strain C73-1, in vitro, sodium salts, read-out: MIC
[22] = Proteus morganii kono, in vitro, sodium salts, read-out: MIC
[23] = Vibrio parahaemolyticus K - 3, in vitro, sodium salts, read-out: MIC
[24] = Vibrio parahaemolyticus K - 5, in vitro, sodium salts, read-out: MIC
[25] = Pseudomonas strain C73-63, in vitro, sodium salts, read-out: MIC
[26] = Proteus morganii C73-23, in vitro, sodium salts, read-out: MIC
[27] = Enterobacter strain C73-17, in vitro, sodium salts, read-out: MIC
[28] = Pseudomonas aeruginosa C73-2, in vitro, sodium salts, read-out: MIC
[29] = Pseudomonas aeruginosa C-73-2, read-out: Mic value against Pseudomonas aeruginosa C-73-2

SMILES | MIC [1, 15] [µg/mL] | MIC [3, 17] [µg/mL] | MIC (Escherichia coli C 73-1; Escherichia coli) [µg/mL] | MIC (Escherichia coli C 73-4; Escherichia coli) [µg/mL] | MIC [4, 18] [µg/mL] | MIC [5, 19] [µg/mL] | MIC [6, 20] [µg/mL] | MIC (Salmonella strain C73-1; [21]) [µg/mL] | MIC [7] [µg/mL] | MIC (Klebsilla pneumoniae) [µg/mL] | MIC (Proteus morganii kono; [22]) [µg/mL] | MIC (Proteus morganii C73-23) [µg/mL] | MIC ([8]; Enterobacter) [µg/mL] | MIC (Serratia strain No. 1; Serratia, NO.1) [µg/mL] | MIC (Serratia strain No. 2; Serratia, NO.2) [µg/mL] | MIC ([9]; Pseudomonas aeruginosa) [µg/mL] | MIC ([10]; Pseudomonas) [µg/mL] | MIC [12, 24] [µg/mL] | MIC [2] [µg/mL] | MIC ([11]; Vibrio parahaemolyticus) [µg/mL] | other results
CCN1CCN(C(=O)N[C@@H](C(=O)N[C@@H]2C(=O)N3[C@@H]2SC(C)(C)[C@@H]3C(=O)O)c2ccccc2)C(=O)C1=O [C, sodium 6-[D(-)-α-(4-ethyl-2,3-dioxopiperazin-1-yl-carbonylamino)phenylacetamido]penicillanate, reference compound] | 0.78 | 0.39 | 3.13 | 6.25 | < 0.05 | 50 | 6.25 | 6.25 | 0.2 | 3.13 | 0.78 | 3.13 | 6.25 | 3.13 | 3.13 | 6.25 | 3.13 | 12.5 |  |  | MIC [2, 16]: 12.5 µg/mL; MIC [11, 23]: 25 µg/mL
CC1=C(C(=O)O)N2C(=O)[C@@H](NC(=O)[C@H](N)c3ccccc3)[C@H]2SC1 [CEX, sodium cephalexin, reference compound] |  |  | 25 | 6.25 |  | > 100 | 3.13 | 3.13 | 1.56 | 3.13 |  | > 100 | 100 | > 100 | > 100 | > 100 |  |  | 50 | 6.25 | MIC ([1]; Staphylococcus aureus): 0.78 µg/mL; MIC ([3]; Bacillus): 0.39 µg/mL; MIC ([4]; ENTERITIDIS): 3.13 µg/mL; MIC (Proteus morganii kono): > 100 µg/mL; MIC [10, 25]: > 100 µg/mL; MIC ([12]; Vibrio parahaemolyticus): 50 µg/mL
CCN1CCN(C(=O)N[C@@H](C(=O)NC2C(=O)N3C(C(=O)[O-])=C(CSc4nncs4)CS[C@H]23)c2ccc(O)cc2)C(=O)C1=O.[Na+] (single isomer, unassigned) |  |  | 1.56 | 0.39 |  |  |  |  | < 0.05 | 0.1 |  | 6.25 | 25 | 3.13 | 3.13 | 6.25 | 1.56 |  | 0.78 | 6.25 | MIC ([1]; Staphylococcus aureus): 0.39 µg/mL; MIC ([3]; Bacillus): 0.78 µg/mL; MIC ([4]; ENTERITIDIS): < 0.05 µg/mL; MIC ([5]; Pseudomonas): 25 µg/mL; MIC ([6]; Salmonella): 0.39 µg/mL; MIC (Salmonella strain C73-1; Salmonella): 0.39 µg/mL; MIC (Proteus morganii kono): 1.56 µg/mL; MIC ([12]; Vibrio parahaemolyticus): 6.25 µg/mL; concentration at 0.5 h ([13]; after 30 mins.): 52.8 µg/mL; dose excreted at 6 h ([13]; after 6 hrs., read-out: ACCUMULATIVE URINARY EXCRETION): 33.4%; ED50 in Pseudomonas infection in mice [14]: 3.0 mg/mouse
CC1(C)S[C@@H]2[C@H](NC(=O)C(C(=O)O)c3ccccc3)C(=O)N2[C@H]1C(=O)O (stereo partly shown) [CB-PC, sodium carbenicillin, reference compound] | 0.2 | < 0.05 |  | 6.25 | 0.39 | > 100 | 6.25 | 6.25 | 0.78 | 6.25 | 0.39 |  |  | 3.13 | 3.13 |  | 12.5 | > 100 | 6.25 |  | MIC (Escherichia coli C 73-1; Escherichia coli C 73-1, in vitro, sodium salts, read-out: MIC): > 100 µg/mL; MIC (Proteus morganii C73-23; [26]): 1.56 µg/mL; MIC [8, 27]: 25 µg/mL; MIC [9, 28]: 25 µg/mL; MIC [11, 23]: > 100 µg/mL; ED50 in Pseudomonas infection in mice [14]: 8.1 mg/mouse
CCN1CCN(C(=O)N[C@@H](C(=O)NC2C(=O)N3C(C(=O)O)=C(CSc4nnc(C)s4)CS[C@H]23)c2ccc(O)cc2)C(=O)C1=O (single isomer, unassigned) [Example 8, 7-[D(-)-α-(4-ethyl-2,3-dioxopiperazin-1-yl-carbonylamino)-p-hydroxyphenylacetamido]-3-(5-methyl-1,3,4-thiadiazol-2-yl-thiomethyl)-3-cephem-4-carboxylic acid] |  |  |  |  |  |  |  |  |  |  |  |  |  |  |  |  |  |  |  |  | MIC [9, 29]: 25 µg/mL (≈ 37.8 µM)
Cc1nnc(SCC2=C(C(=O)O)N3C(=O)[C@@H](NC(=O)Cn4cnnn4)[C@H]3SC2)s1 [CEZ, sodium cefazolin, reference compound] | < 0.05 | < 0.05 | 3.13 |  | 0.78 | > 100 | 0.78 | 0.78 | 0.78 |  | > 100 |  |  |  |  |  |  | 12.5 |  | 1.56 | MIC [2, 16]: 2.5 µg/mL; MIC (Escherichia coli C 73-4; Escherichia coli C 73-4, in vitro, sodium salts, read-out: MIC): 0.78 µg/mL; MIC (Klebsilla pneumoniae; Klebsilla pneumoniae, in vitro, sodium salts, read-out: MIC): 0.78 µg/mL; MIC (Proteus morganii C73-23; [26]): > 100 µg/mL; MIC [8, 27]: 25 µg/mL; MIC (Serratia strain No. 1; Serratia strain No. 1, in vitro, sodium salts, read-out: MIC): > 100 µg/mL; MIC (Serratia strain No. 2; Serratia strain No. 2, in vitro, sodium salts, read-out: MIC): > 100 µg/mL; MIC [9, 28]: > 100 µg/mL; MIC [10, 25]: > 100 µg/mL
CCN1CCN(C(=O)N[C@@H](C(=O)NC2C(=O)N3C(C(=O)O)=C(CSc4nnc(C)s4)CSC23)c2ccc(O)c(Cl)c2)C(=O)C1=O (single isomer, unassigned) [Example 7] |  |  |  |  |  |  |  |  |  |  |  |  |  |  |  |  |  |  |  |  | MIC [9, 29]: 12.5 µg/mL (≈ 18 µM)
